The values below come from patent EP0088849A1, “Levorotatory compounds of N-substituted benzenesulphone amides, process for their preparation and pharmaceutical compositions containing them” (CHOAY S.A., priority 1982, dated 1983).

For this assay, the system named is chiens Beagle. Briefly: Anti-emetic test: apomorphine-induced vomiting in Beagle dogs. Particulars: for Diminution par rapport au témoin (%): percentage decrease in number of vomitings vs control trial, compound about 1 mg/kg intramuscular at time 0, apomorphine about 100 µg/kg subcutaneous 30 minutes later. In kind it is in vivo. As to the method: L'étude a été effectuée sur des chiens Beagle provenant de l'élevage du Centre de RecherchesBiologiques de Baugy.
On a tout d'abord effectué un essai témoin, puis six jours après, on a testé notamment les quatre composés mentionnés ci-dessus.
Pendant l'essai témoin, les animaux reçoivent 100 µg/kg d'apomorphine, qui provoque des vomissements,
Lorsqu'on teste les produits conformes à l'invention et le racémique du composé n° 1 135, les animaux reçoivent : • - à l'instant 0, une injection intra-musculaire du composé étudié à raison d'environ 1 mg/kg • - 30 minutes plus tard, une injection sous- cutanée d'apomorphine est effectuée, d'environ 100 µg/kg.
Les résultats donnés ci-après correspondent aux pourcentages de diminution du nombre de vomissements par rapport à l'essai témoin.

In the case of `CCN1CCC[C@H]1CNS(=O)(=O)c1cc(Cl)c(OC)cc1OC` [Composé n° 1 138], the “Diminution par rapport au témoin (%)” value turned out to be 20%.

As for `CCN1CCCCCC1CNS(=O)(=O)c1cc(Cl)c(N)cc1OC` (racemic) [Composé n° 1 149, amino-4 chloro-5 méthoxy-2 N-(N-éthyl méthyl-2 azépinyl) benzènesulfonamide], the “Diminution par rapport au témoin (%)” value is 60%.

`CCN1CCC[C@H]1CNS(=O)(=O)c1cc(Cl)c(N)cc1OC` [Composé n° 1 135]: the “Diminution par rapport au témoin (%)” value came to 50%. Besides, the “nombre de vomissements / activité” value (result in words, same test (about 1 mg/kg i.m., apomorphine about 100 µg/kg s.c. 30 min later)) is recorded as “beaucoup plus actif que le racémique correspondant”.

As for `CCN1CCCC1CNS(=O)(=O)c1cc(Cl)c(N)cc1OC` (racemic) [racémique du lévo-gyre n° 1 135, reference compound], the “Diminution par rapport au témoin (%)” value is 10%.
